Patent US9289505B2, “Compositions and methods for delivering nucleic acid molecules and treating cancer” (Rutgers, The State University of New Jersey, priority 2010, dated 2016)
Non-standard residues stand in square brackets, D forms with d. No end group written: not given here. d = 2'-deoxy (DNA); r = 2'-OH (RNA)

Key:
[1] = test system: subcutaneous tumor xenografts of human A549 cancer cells; assay: Antitumor activity in subcutaneous A549 xenografts; settings: intratumoral 3 times within 10 days
Procedure: NCR nude mice (female, 6 weeks, 20 g) were purchased from Taconic Farms, Inc. (Germantown, N.Y.). […] Briefly, A549 human cancer cells transfected with luciferase (5×10^6) were subcutaneously transplanted into the flanks of female athymic nu/nu mice. According to the approved institutional animal use protocol, the tumors were measured by a caliper every other day and their volumes were calculated as d^2×D/2 where d and D are the shortest and longest diameter of the tumor in mm, respectively. When the tumor reached a mean size of 50 mm^3, mice were divided into seven groups and injected intratumorally 3 times within 10 days with 150 μL of the following formulations: (1) saline (control); (2) free non-bound LHRH; (3) free non-bound siRNA; (4) free non-bound CIS; (5) Mixture of CIS and SPIO-PPI G5; (6) Mixture of CIS and SPIO-PPI G5-siRNA; and (7) Mixture of CIS and SPIO-PPI G5-siRNA-PEG-LHRH complexes. The concentrations of CIS and siRNA in the formulations were 2.5 mg/kg and 30 μM, respectively. Changes in tumor size were monitored by real-time bioluminescence in anesthetized animals by IVIS imaging system (Xenogen Bioscience, Cranbury, N.J.).

[2] = test system: healthy organs (liver, kidney, spleen, heart, lung and brain); assay: Apoptosis induction in healthy organs (cell death detection ELISA); type: in vivo, mice
Procedure: (§1) Induction of apoptosis was analyzed by the measurement of the enrichment of histone-associated DNA fragments (mono- and oligo-nucleosomes) in homogenates of the tumor, malignant ascites and other organs (liver, kidney, lung, heart and brain) using anti-histone and anti-DNA antibodies by a cell death detection ELISA Plus kit (Roche, Nutley, N.J.) as previously described (Pakunlu et al. (2004) Cancer Res., 64:6214-6224; Dharap et al. (2005) Proc. Natl. Acad. Sci., 102:12962-12967; Dharap et al. (2003) Pharm. Res., 20:889-896).

MDR1 mRNA = assay: MDR1 gene expression in subcutaneous tumors, quantitative RT-PCR; type: in vivo, human; settings: treated 8 times within 30 days, vs untreated control
Procedure: (§2) The expression of MDR1 and BCL2 genes was measured using a quantitative RT-PCR as previously described (Pakunlu et al. (2006) J. Control. Rel., 114:153-162). Gene expression was calculated as a percent of internal standard (β2-microglobulin). To identify the presence of BCL2, P-glycoprotein and Caspase 3 (CASP3) proteins, the immunohistochemical staining of paraffin-embedded tumor tissue slides was carried out. For BCL2 and CASP3, slides were deparaffinized in xylene for 5 min followed by progressive rehydration in 100%, 95%, 70% and 50% ethanol for 3 minutes during each step. Endogenous peroxidase activity was blocked by incubating slides in 3% H2O2 solution in methanol at room temperature for 10 minutes and washing in 300 ml PBS two times for 5 minutes. Slides then were stained with anti-mouse monoclonal antibodies for BCL2 conjugated with FITC (1:200 dilution; BioLegend, catalog number 633502, San Diego, Calif.) and for CASP3 conjugated with Alexa Flour 647 (1:200 dilution; BioLegend, catalog number 622702, San Diego, Calif.) by incubating for an hour, washed in 300 ml PBS two times for 5 minutes and analyzed by fluorescence microscopy. To identify the expression of P-glycoprotein, after deparaffinization and rehydration, the slides were stained using Vector® M.O.M. Immunodetection Kit (Vector Laboratories, Inc., Burlingame, Calif.). Mouse monoclonal antibody to P-glycoprotein (ab3366, 1:40 dilution) obtained from Abcam (Cambridge, Mass.) was used as primary antibody for the detection of P-glycoprotein. Biotinylated anti-mouse IgG Reagent (1:250 dilution, Vector Laboratories, Inc., Burlingame, Calif.) and HSP-Streptavidine Detection System (1:500 dilution, Vector Laboratories, Inc., Burlingame, Calif.) in combination with DAB substrate kit (Vector Laboratories, Inc., Burlingame, Calif.) for peroxidase were used for visualization. After staining, the slides were examined by light microscopy and photographed.

[3] = test system: xenografts of human malignant ascites (ovarian carcinoma); assay: In vivo antitumor activity in mice bearing xenografts of human malignant ascites; settings: intraperitoneal treatment max 8 times within 30 days; DOX 2.5 mg/kg, CIS 2.5 mg/kg
Procedure: All mice received cancer cells from the same patient. When the tumors reached a size of about 0.3 cm^3 (15-20 days after transplantation), mice were treated intraperitoneally with the following formulations: (1) Saline (untreated control); (2) Liposomes (Lip); (3) LHRH; (4) DOX; (5) Lip-DOX; (6) Lip-DOX-BCL2 ASO; (7) Lip-DOX-MDR1 ASO; (8) Lip-DOX-BCL2-MDR1 ASO; (9) LHRH-Lip-DOX-BCL2-MDR1 ASO; (10) CIS; (11) Lip-CIS; (12) Lip-CIS-BCL2 ASO; (13) Lip-CIS-MDR1 ASO; (14) Lip-CIS-BCL2-MDR1 ASO; (15) LHRH-Lip-CIS-BCL2-MDR1 ASO; (16) DOX+CIS; (17) Lip-DOX+Lip-CIS; (18) Lip-DOX-BCL2 ASO+Lip-CIS-BCL2 ASO; (19) Lip-DOX-MDR1 ASO+Lip-CIS-MDR1 ASO; (20) Lip-DOX-BCL2-MDR1 ASO+Lip-CIS-BCL2-MDR1 ASO; (21) LHRH-Lip-DOX-BCL2-MDR1 ASO+LHRH-Lip-CIS-BCL2-MDR1 ASO. […] The animals were treated maximum 8 times over four weeks and the development of primary tumor and intraperitoneal metastases was monitored by fluorescent IVIS (Xenogen, Alameda, Calif.) and ultrasound Vevo 2100 (VisualSonics, Toronto, Canada) imaging systems. To initiate bioluminescence of cancer cells, 1× substrate/reaction buffer (Clontech, Mountain View, Calif.) was diluted 1:20 with DPBS and 100 μl of the solution was injected into each mouse. The bioluminescent images were taken 10 minutes after the injection of the substrate. The size of primary tumor was measured by a caliper. At the end of the experiments, tumors and ascites were excised and their mass was measured. Animal weight was evaluated every day during the treatment period. Changes in tumor size were used as an overall marker for antitumor activity.

BCL2 mRNA = assay: BCL2 gene expression in subcutaneous tumors, quantitative RT-PCR; type: in vivo, human; settings: treated 8 times within 30 days, vs untreated control
Procedure: as §2

[4] = test system: tumor and malignant ascites; assay: Apoptosis induction in tumor and malignant ascites (cell death detection ELISA); type: in vivo, mice; settings: histone-complexed DNA fragments
Procedure: as §1

Caspase 3 = assay: Immunohistochemical staining of tumor tissue for Caspase 3; type: in vivo, human; settings: tumor tissue sections
Procedure: as §2, with “Mouse monoclonal antibody to P-glycoprotein (ab3366, 1:40 dilution) obtained from Abcam (Cambridge, Mass.) was used as primary antibody for the detection of P-glycoprotein. Biotinylated anti-mouse IgG Reagent (1:250 dilution, Vector Laboratories, Inc., Burlingame, Calif.) and HSP-Streptavidine Detection System (1:500 dilution, Vector Laboratories, Inc., Burlingame, Calif.) in combination with DAB substrate kit (Vector Laboratories, Inc., Burlingame, Calif.) for peroxidase were used for visualization. After staining, the slides were examined by light microscopy and photographed.” left out

[5] = Maximum tolerated dose from animal weight change; type: in vivo; settings: mice; estimated from animal weight change after injection of increasing doses
BCL2 gene = BCL2 gene expression, RT-PCR; type: cell-based, human; settings: A2780 cells, BCL2 siRNA 1 μM delivered by the named carrier, 24 hours
Procedure: Reverse transcription-polymerase chain reaction (RT-PCR) was used for the analysis of gene expression (Pakunlu et al. (2004) Cancer Res., 64:6214-6224). […] After 24 hours, total cellular RNA was isolated using an RNeasy kit (Qiagen, Valencia, Calif.). […] After synthesis, the reaction mixture was immediately subjected to polymerase chain reaction (PCR), which was carried out using […] System 2400 (Perkin-Elmer, Shelton, Conn.). β2-microglobulin (β2-m) was used as an internal standard. The following pairs of primers were used: BCL2: [NT] (sense; SEQ ID NO: 6), [NT] (antisense; SEQ ID NO: 7); β2-m (internal […] (sense; SEQ ID NO: 8), [NT] (antisense; SEQ ID NO: 9). PCR regimen was as follows: 94° C. for 5 minutes; 94° C. for 1 minute, 55° C. for 1 minute, and 72° C. for 1 minute for 41 cycles; and 60° C. for 10 minutes. PCR products were separated in 4% NuSieve 3:1 Reliant-agarose gels (Lonza, Basel, Switzerland) in 1× Tris-borate EDTA buffer [0.089 mol/L Tris-borate, 0.002 mol/L EDTA (pH 8.3); Research Organics Inc., Cleveland, Ohio] by submarine electrophoresis. The gels were stained with EtBr and digitally photographed.

## Lys6-des-Gly10-Pro9-ethylamide (Gln-His-Trp-Ser-Tyr-DLys-Leu-Arg-Pro-NH-Et; SEQ ID NO: 3) (QHWSY[dK]LRP-NHEt) [LHRH, synthetic analog of Luteinizing Hormone-Releasing Hormone, tumor targeting moiety]
[1]
  tumor growth / antitumor activity: did not significantly influence the growth of the tumor
[2]
  apoptosis induction in healthy organs: did not induce detectable levels of apoptosis
MDR1 mRNA
  expression of MDR1 gene: did not change significantly
[3]
  development and mass of intraperitoneal metastases and malignant ascites: did not influence
  growth of primary subcutaneous tumor (volume): did not influence
BCL2 mRNA
  expression of BCL2 gene: did not change significantly
[4]
  apoptosis induction in tumor and malignant ascites: did not induce detectable levels of apoptosis

## N.N.[Cl][Pt][Cl] [CIS, cisplatin]
Caspase 3
  expression/activation of caspase 3: activated caspase 3
[1]; last day of treatment, CIS 2.5 mg/kg, siRNA 30 μM
  decrease of tumor volume/growth compared with untreated control: 36.2%
MDR1 mRNA
  expression of MDR1 gene: statistically significant overexpression
[3]
  development and mass of intraperitoneal metastases and malignant ascites: more effective in limiting the growth of both primary tumor and malignant ascites when compared to corresponding DOX formulations
  growth of primary subcutaneous tumor (volume): more effective in limiting the growth of both primary tumor and malignant ascites when compared to corresponding DOX formulations
BCL2 mRNA
  expression of BCL2 gene: statistically significant overexpression
[5]
  maximum tolerated dose: 2.5 mg/kg
[4]
  apoptosis induction in tumor and malignant ascites: induced apoptosis

## sense strand, 5′-CCU CGG GCU GUG CUC UUU U-dTdT-3′, SEQ ID NO: 10; antisense strand, 5′-AAA AGA GCA CAG CCC GAG G-dTdT-3′, SEQ ID NO: 11 (sense CCUCGGGCUGUGCUCUUUUTT; antisense AAAAGAGCACAGCCCGAGGTT; sugars from the 5' end r19 d2, backbone not given here) [naked non-specific siRNA, non-specific siRNA used as a negative control]
BCL2 gene
  expression of targeted BCL2 gene, from control value: did not influenced

## COc1cccc2c1C(=O)c1c(O)c3c(c(O)c1C2=O)C[C@@](O)(C(=O)CO)C[C@@H]3O[C@H]1C[C@H](N)[C@H](O)[C@H](C)O1 [DOX, doxorubicin]
Caspase 3
  expression/activation of caspase 3: activated caspase 3
MDR1 mRNA
  expression of MDR1 gene: statistically significant overexpression
[3]
  growth of primary subcutaneous tumor (volume): slowed down the growth
BCL2 mRNA
  expression of BCL2 gene: statistically significant overexpression
[5]
  maximum tolerated dose: 2.5 mg/kg
[4]
  apoptosis induction in tumor and malignant ascites: induced apoptosis
